{
  "source": "patent US20190055279A1",
  "about": "“NOVEL POLYPEPTIDES WITH IMPROVED PROTEOLYTIC STABILITY, AND METHODS OF PREPARING AND USING SAME” (TUFTS UNIVERSITY, priority 2015, published 2019)",
  "data": [
    {"molecular_target": "DPP4 (Homo sapiens, UniProt P27487)", "sequence (P27487 whole entry, species assumed)": "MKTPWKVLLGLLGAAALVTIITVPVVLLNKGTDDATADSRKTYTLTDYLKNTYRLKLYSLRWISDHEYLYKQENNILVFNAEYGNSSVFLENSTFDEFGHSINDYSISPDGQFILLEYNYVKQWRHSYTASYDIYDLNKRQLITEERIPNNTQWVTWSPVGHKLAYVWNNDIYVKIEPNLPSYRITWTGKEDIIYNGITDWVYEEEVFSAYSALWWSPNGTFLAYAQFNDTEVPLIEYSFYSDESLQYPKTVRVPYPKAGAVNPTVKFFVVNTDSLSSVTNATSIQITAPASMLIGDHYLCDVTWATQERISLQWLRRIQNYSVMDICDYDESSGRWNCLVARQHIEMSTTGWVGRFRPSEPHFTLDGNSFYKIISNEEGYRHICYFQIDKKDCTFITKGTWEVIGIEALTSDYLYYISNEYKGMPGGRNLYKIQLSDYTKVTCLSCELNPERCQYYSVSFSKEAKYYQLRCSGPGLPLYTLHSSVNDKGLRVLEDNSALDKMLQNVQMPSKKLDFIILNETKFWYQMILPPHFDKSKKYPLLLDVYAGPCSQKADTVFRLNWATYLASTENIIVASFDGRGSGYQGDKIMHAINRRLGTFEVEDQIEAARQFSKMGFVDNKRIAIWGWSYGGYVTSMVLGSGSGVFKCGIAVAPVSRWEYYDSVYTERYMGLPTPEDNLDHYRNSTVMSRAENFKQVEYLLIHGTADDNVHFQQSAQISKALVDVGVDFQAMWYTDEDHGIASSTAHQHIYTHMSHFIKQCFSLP", "assay": "Sensitivity to DPP4: overnight incubation with recombinant DPP4 or vehicle, then receptor agonist bioassay", "settings": "overnight incubation with or without DPP4, readout at cognate receptor", "experimental": "Plotting concentration versus the luciferase activity yielded quantitative parameters for combined binding (potency) and signaling (efficacy) in a single step. […] DPP4 treated peptides: 10 μl of 0.26 mM peptide were incubated with 2 μL DPP4 in buffer ±DMSO for 18 hrs. Control peptides: 10 μl of 0.26 mM peptide was added to buffer ±DMSO. The final DMSO concentration was the same for all peptides and all peptides were diluted to 0.26 mM concentrations for the DPP4 assay.\nCompounds are incubated overnight at 37° C. in the presence of recombinant DPP4 or vehicle (TRIS buffer). The samples are then assessed in GLP-1R agonist assays.\nCompounds were incubated overnight at 37° C. in the presence of recombinant DPP4 or vehicle (TRIS buffer, pH 8.0). The samples were then assessed in GLP1R agonist assays as described elsewhere herein.", "values": [
      {"compound": "CC[C@H](C)[C@H](NC(=O)[C@H](Cc1ccccc1)NC(=O)[C@H](CCC(=O)O)NC(=O)[C@H](CCCCN)NC(=O)[C@H](C)NC(=O)[C@H](C)NC(=O)[C@H](CCC(N)=O)NC(=O)CNC(=O)[C@H](CCC(=O)O)NC(=O)[C@H](CC(C)C)NC(=O)[C@H](Cc1ccc(O)cc1)NC(=O)[C@H](CO)NC(=O)[C@H](CO)NC(=O)[C@@H](NC(=O)[C@H](CC(=O)O)NC(=O)[C@H](CO)NC(=O)[C@@H](NC(=O)[C@H](Cc1ccccc1)NC(=O)[C@@H](NC(=O)CNC(=O)[C@H](CCC(=O)O)NC(=O)[C@H](C)NC(=O)[C@H](Cc1c[nH]cn1)NCC(C)C)[C@@H](C)O)[C@@H](C)O)C(C)C)C(=O)N[C@@H](C)C(=O)N[C@@H](Cc1c[nH]c2ccccc12)C(=O)N[C@@H](CC(C)C)C(=O)N[C@H](C(=O)N[C@@H](CCCCN)C(=O)NCC(=O)N[C@@H](CCCNC(=N)N)C(N)=O)C(C)C", "note": "[G-6, isobutyl GLP-1]", "DPP4 degradation / resistance (in words)": "virtually complete DPP4 resistance"},
      {"compound": "CC[C@H](C)[C@H](NC(=O)[C@H](C)NC(=O)[C@H](CC(=O)O)NC(=O)[C@H](C)NC(=O)[C@H](Cc1ccc(O)cc1)NCC(F)(F)F)C(=O)N[C@@H](Cc1ccccc1)C(=O)N[C@H](C(=O)N[C@@H](CC(N)=O)C(=O)N[C@@H](CO)C(=O)N[C@@H](Cc1ccc(O)cc1)C(=O)N[C@@H](CCCNC(=N)N)C(=O)N[C@@H](CCCCN)C(=O)N[C@H](C(=O)N[C@@H](CC(C)C)C(=O)NCC(=O)N[C@@H](CCC(N)=O)C(=O)N[C@@H](CC(C)C)C(=O)N[C@@H](CO)C(=O)N[C@@H](C)C(=O)N[C@@H](CCCNC(=N)N)C(=O)N[C@@H](CCCCN)C(=O)N[C@@H](CC(C)C)C(=O)N[C@@H](CC(C)C)C(=O)N[C@@H](CCC(N)=O)C(=O)N[C@@H](CC(=O)O)C(=O)N[C@H](C(=O)N[C@@H](CCSC)C(=O)N[C@@H](CO)C(=O)N[C@@H](CCCNC(=N)N)C(N)=O)[C@@H](C)CC)C(C)C)[C@@H](C)O", "note": "[GH29-4]", "DPP4 degradation / resistance (in words)": "resistant to enzyme induced potency loss"},
      {"compound": "CC[C@H](C)[C@H](NC(=O)[C@H](Cc1ccccc1)NC(=O)[C@H](CCC(=O)O)NC(=O)[C@H](CCCCN)NC(=O)[C@H](C)NC(=O)[C@H](C)NC(=O)[C@H](CCC(N)=O)NC(=O)CNC(=O)[C@H](CCC(=O)O)NC(=O)[C@H](CC(C)C)NC(=O)[C@H](Cc1ccc(O)cc1)NC(=O)[C@H](CO)NC(=O)[C@H](CO)NC(=O)[C@@H](NC(=O)[C@H](CC(=O)O)NC(=O)[C@H](CO)NC(=O)[C@@H](NC(=O)[C@H](Cc1ccccc1)NC(=O)[C@@H](NC(=O)CNC(=O)[C@H](CCC(=O)O)NC(=O)[C@H](C)NC(=O)[C@H](Cc1c[nH]cn1)NC(C)=O)[C@@H](C)O)[C@@H](C)O)C(C)C)C(=O)N[C@@H](C)C(=O)N[C@@H](Cc1c[nH]c2ccccc12)C(=O)N[C@@H](CC(C)C)C(=O)N[C@H](C(=O)N[C@@H](CCCCN)C(=O)NCC(=O)N[C@@H](CCCNC(=N)N)C(N)=O)C(C)C", "note": "[GLP-1b]", "DPP4 degradation / resistance (in words)": "stability against DPP4"},
      {"compound": "CC[C@H](C)[C@H](NC(=O)[C@H](Cc1ccccc1)NC(=O)[C@H](CCC(=O)O)NC(=O)[C@H](CCCCN)NC(=O)[C@H](C)NC(=O)[C@H](C)NC(=O)[C@H](CCC(N)=O)NC(=O)CNC(=O)[C@H](CCC(=O)O)NC(=O)[C@H](CC(C)C)NC(=O)[C@H](Cc1ccc(O)cc1)NC(=O)[C@H](CO)NC(=O)[C@H](CO)NC(=O)[C@@H](NC(=O)[C@H](CC(=O)O)NC(=O)[C@H](CO)NC(=O)[C@@H](NC(=O)[C@H](Cc1ccccc1)NC(=O)[C@@H](NC(=O)CNC(=O)[C@H](CCC(=O)O)NC(=O)[C@H](C)NC(=O)[C@H](Cc1c[nH]cn1)NCc1ccccc1)[C@@H](C)O)[C@@H](C)O)C(C)C)C(=O)N[C@@H](C)C(=O)N[C@@H](Cc1c[nH]c2ccccc12)C(=O)N[C@@H](CC(C)C)C(=O)N[C@H](C(=O)N[C@@H](CCCCN)C(=O)NCC(=O)N[C@@H](CCCNC(=N)N)C(N)=O)C(C)C", "note": "[benzyl]", "DPP4 degradation / resistance (in words)": "virtually complete DPP4 resistance"}
    ]}
  ]
}
